molecular target: T1, Ba/F3 cell EGFR Exon20 ins NPH (Homo sapiens, UniProt P00533, INS773NPH); test: Ba/F3 cell proliferation suppression, EGFR Exon20 ins NPH; format: cell-based; conditions: GI50 class; Ba/F3 cell line with NPH inserted at Exon20 of EGFR; 72 hours
T1 construct: expressed in transfected cells; host or cells: Ba/F3
Method: The following experiment was carried out to evaluate the suppression activity of the compounds according to the present invention against proliferation of Ba/F3 and lung cancer cells which express EGFR mutations.
Of the cancer cell lines expressing the EGFR gene, A549 was cultured after adding 10% FBS (HyClone) to DMEM (Invitrogen), and RPMI-1640 (Invitrogen) with 10% FBS was used for the other cancer cells. For the Ba/F3 cells, RPMI-1640 with 10% FBS and 5 ng/ml IL-3 (R&D Systems) was used. The transduced Ba/F3 cells were cultured by adding 1 ug/ml puromycin (Invitrogen) to the same medium.
24 hours before treatment with the compounds, 3000 to 5000 cells were distributed into each well of a white clear bottom 96 well plate (Corning). The compounds were diluted in dimethylsulfoxide (dilution ratio 3:1; 12 concentrations total) and injected 0.5 ul each for a final concentration of 0.3 nM to 50 um. As for measurement of live cells, 72 hours after treatment with the compounds, a CellTiter-Glo luminescent cell-viability reagent (Promega) was used to store the cells at room temperature for 10 minutes, followed by measurement of luminescence using a reader (SynergyNeo, Biotek). Each test was repeated three times.
The result was calculated as a cell growth ratio (%) compared to a control. The program GraphPad Prism version 5.0 was used to draw the graphs and calculate the GI50 values.

SMILES	Ba/F3 (NPH) Activity
C=CC(=O)Nc1cc(Nc2cc(N3OCC[C@@H]3Cc3cccc(F)c3C)ncn2)c(OC)cc1N1CCC(N2C[C@@H]3C[C@H]2CO3)CC1 [compound 1040, N-(2-(4-((1S,4S)-2-oxa-5-azabicyclo [2.2.1]heptane-5-yl)piperidine-1-yl)-5-((6-((S)-3-(3-fluoro-2-methylbenzyl)isoxazolidine-2-yl)pyrimidine-4-yl)amino)-4-methoxyphenyl) acrylamide]	A (GI50 < 50 nM)
C=CC(=O)Nc1cc(Nc2cc(N3OCC[C@@H]3Cc3cccc(Cl)c3Cl)ncn2)c(OC)cc1N1CCC(N2C[C@@H]3C[C@H]2CO3)CC1 [compound 1012, N-(2-(4-((1S,4S)-2-oxa-5-azabicyclo [2.2.1]heptane-5-yl)piperidine-1-yl)-5-((6-((S)-3-(2,3-dichlorobenzyl)isoxazolidine-2-yl)pyrimidine-4-yl)amino)-4-methoxyphenyl) acrylamide]	A (GI50 < 50 nM)
C=CC(=O)Nc1cc(Nc2cc(N3OCC[C@@H]3c3ccc(C)nc3)ncn2)c(OC)cc1N1CCN(C2CC2)CC1 [Example 46, N-(2-(4-cyclopropylpiperazine-1-yl)-4-methoxy-5-((6-((R)-3-(6-methylpyridine-3-yl)isoxazolidine-2-yl)pyrimidine-4-yl)amino)phenyl) acrylamide]	C (500 nM ≤ GI50 < 5000 nM)
C=CC(=O)Nc1cc(Nc2cc(N3OCC[C@@H]3c3ccc(F)c(F)c3F)ncn2)c(OC)cc1N1CC[C@@H](N(C)C)C1 [compound 622, N-(2-((R)-3-(dimethylamino)pyrolidine-1-yl)-4-methoxy-5-((6-((R)-3-(2,3,4-trifluorophenyl)isoxazolidine-2-yl)pyrimidine-4-yl)amino)phenyl)acrylamide]	C (500 nM ≤ GI50 < 5000 nM)
C=CC(=O)Nc1cc(Nc2cc(N3OCC[C@@H]3Cc3cc(F)cc(F)c3)ncn2)c(OC)cc1N1CCC(N2C[C@@H]3C[C@H]2CO3)CC1 [compound 1035, N-(2-(4-((1S,4S)-2-oxa-5-azabicyclo [2.2.1]heptane-5-yl)piperidine-1-yl)-5-((6-((S)-3-(3,5-difluorobenzyl)isoxazolidine-2-yl)pyrimidine-4-yl)amino)-4-methoxyphenyl) acrylamide]	A (GI50 < 50 nM)
C=CC(=O)Nc1cc(Nc2cc(N3OCC[C@@H]3c3cc(F)cc(F)c3)ncn2)c(OC)cc1N1CCC(N2CCN(C3CC3)[C@H](C)C2)CC1 [Example 109, N-(2-(4-((R)-4-cyclopropyl-3-methylpiperazine-1-yl)piperidine-1-yl)-5-((6-((R)-3-(3,5-difluorophenyl)isoxazolidine-2-yl)pyrimidine-4-yl)amino)-4-methoxyphenyl) acrylamide]	A (GI50 < 50 nM)
C=CC(=O)Nc1cc(Nc2cc(N3OCC[C@@H]3Cc3cccc(N(C)C)c3)ncn2)c(OC)cc1N1CCC(N2CCN(C3CC3)[C@@H](C)C2)CC1 [compound 1045, N-(2-(4-((S)-4-cyclopropyl-3-methylpiperazine-1-yl)piperidine-1-yl)-5-((6-((S)-3-(3-(dimethylamino)benzyl)isoxazolidine-2-yl)pyrimidine-4-yl)amino)-4-methoxyphenyl) acrylamide]	B (50 nM ≤ GI50 < 500 nM)
C=CC(=O)Nc1cc(Nc2cc(N3OCC[C@@H]3c3ccc(Cl)c(Cl)c3)ncn2)c(OC)cc1N(C)CCN(C)C [compound 669, N-(5-((6-((R)-3-(3,4-dichlorophenyl)isoxazolidine-2-yl)pyrimidine-4-yl)amino)-2-((2-(dimethylamino)ethyl)(methyl)amino)-4-methoxyphenyl) acrylamide]	A (GI50 < 50 nM)
C=CC(=O)Nc1cc(Nc2cc(N3OCC[C@@H]3Cc3cccc(Cl)c3Cl)ncn2)c(OC)cc1N1CCC(N2CCOCC2)CC1 [compound 979, N-(5-((6-((S)-3-(2,3-dichlorobenzyl)isoxazolidine-2-yl)pyrimidine-4-yl)amino)-4-methoxy-2-(4-morpholinopiperidine-1-yl)phenyl)acrylamide]	A (GI50 < 50 nM)
C=CC(=O)Nc1cc(Nc2cc(N3OCC[C@@H]3c3cccc(C)c3F)ncn2)c(OC)cc1N1CCN(C)CC1 [compound 845, N-(5-((6-((R)-3-(2-fluoro-3-methylphenyl)isoxazolidine-2-yl)pyrimidine-4-yl)amino)-4-methoxy-2-(4-methylpiperazine-1-yl)phenyl)acrylamide]	A (GI50 < 50 nM)
C=CC(=O)Nc1cc(Nc2cc(N3OCC[C@@H]3c3cccc(Cl)c3Cl)ncn2)c(OC)cc1N1CCC(N2CC[C@@H](N(C)C)C2)CC1 [compound 610, N-(5-((6-((R)-3-(2,3-dichlorophenyl)isoxazolidine-2-yl)pyrimidine-4-yl)amino)-2-(4-((R)-3-(dimethylamino)pyrolidine-1-yl)piperidine-1-yl)-4-methoxyphenyl) acrylamide]	B (50 nM ≤ GI50 < 500 nM)
C=CC(=O)Nc1cc(Nc2cc(N3OCC[C@@H]3c3cc(F)ccc3F)ncn2)c(OC)cc1N1CCC(N2CCCN(C3CC3)CC2)CC1 [compound 829, N-(2-(4-(4-cyclopropyl-1,4-diazepane-1-yl)piperidine-1-yl)-5-((6-((R)-3-(2,5-difluorophenyl)isoxazolidine-2-yl)pyrimidine-4-yl)amino)-4-methoxyphenyl) acrylamide]	A (GI50 < 50 nM)
C=CC(=O)Nc1cc(Nc2cc(N3OCC[C@@H]3c3ccccc3)ncn2)c(OC)cc1N1CCC(N(C)CCN(C)C)CC1 [compound 735, N-(2-(4-((2-(dimethylamino)ethyl) (methyl)amino)piperidine-1-yl)-4-methoxy-5-((6-((R)-3-phenylisoxazolidine-2-yl)pyrimidine-4-yl)amino)phenyl) acrylamide]	A (GI50 < 50 nM)
C=CC(=O)Nc1cc(Nc2cc(N3OCC[C@@H]3c3cccc(C(F)(F)F)c3)ncn2)c(OC)cc1N1CC[C@H](N2CCOCC2)C1 [compound 507, N-(4-methoxy-2-((S)-3-morpholinopyrolidine-1-yl)-5-((6-((R)-3-(3-(trifluoromethyl)phenyl)isoxazolidine-2-yl)pyrimidine-4-yl)amino)phenyl)acrylamide]	B (50 nM ≤ GI50 < 500 nM)
C=CC(=O)Nc1cc(Nc2cc(N3OCC[C@@H]3c3ccc(F)c(Cl)c3)ncn2)c(OC)cc1N1CCN(C2CC2)CC1 [compound 725, N-(5-((6-((R)-3-(3-chloro-4-fluorophenyl)isoxazolidine-2-yl)pyrimidine-4-yl)amino)-2-(4-cyclopropylpiperazine-1-yl)-4-methoxyphenyl) acrylamide]	A (GI50 < 50 nM)
C=CC(=O)Nc1cc(Nc2cc(N3OCC[C@@H]3Cc3ccccc3)ncn2)c(OC)cc1N1CCN(C(C)=O)CC1 [compound 948, N-(2-(4-acetylpiperazine-1-yl)-5-((6-((S)-3-benzylisoxazolidine-2-yl)pyrimidine-4-yl)amino)-4-methoxyphenyl) acrylamide]	A (GI50 < 50 nM)
C=CC(=O)Nc1cc(Nc2cc(N3OCC[C@@H]3c3cccc(C(F)(F)F)c3)ncn2)c(OC)cc1N1CCC(N2C[C@@H]3C[C@H]2CO3)CC1 [compound 944, N-(2-(4-((1S,4S)-2-oxa-5-azabicyclo [2.2.1]heptane-5-yl)piperidine-1-yl)-4-methoxy-5-((6-((R)-3-(3-(trifluoromethyl)phenyl)isoxazolidine-2-yl)pyrimidine-4-yl)amino)phenyl) acrylamide]	A (GI50 < 50 nM)
C=CC(=O)Nc1cc(Nc2cc(N3OCC[C@@H]3c3cccc4ccccc34)ncn2)c(OC)cc1N1CCC(N2CCN(C)CC2)CC1 [compound 482, N-(4-methoxy-2-(4-(4-methylpiperazine-1-yl)piperidine-1-yl)-5-((6-((R)-3-(naphthalene-1-yl)isoxazolidine-2-yl)pyrimidine-4-yl)amino)phenyl)acrylamide]	A (GI50 < 50 nM)
C=CC(=O)Nc1cc(Nc2cc(N3OCC[C@@H]3c3cc(F)cc(F)c3)ncn2)c(OC)cc1N1CCO[C@H](C)C1 [compound 338, N-(5-((6-((R)-3-(3,5-difluorophenyl)isoxazolidine-2-yl)pyrimidine-4-yl)amino)-4-methoxy-2-((R)-2-methylmorpholino)phenyl)acrylamide]	B (50 nM ≤ GI50 < 500 nM)
C#Cc1cccc([C@H]2CCON2c2cc(Nc3cc(NC(=O)C=C)c(N4CCC(N5CCC(N(C)C)CC5)CC4)cc3OC)ncn2)c1 [compound 655, N-(2-(4-(dimethylamino)-[1,4'-bipiperidine]-1'-yl)-5-((6-((R)-3-(3-ethynylphenyl)isoxazolidine-2-yl)pyrimidine-4-yl)amino)-4-methoxyphenyl) acrylamide]	B (50 nM ≤ GI50 < 500 nM)
C=CC(=O)Nc1cc(Nc2cc(N3OCC[C@@H]3c3cc(F)ccc3F)ncn2)c(OC)cc1N1CCC(N2CC[C@@H](N(C)C)C2)CC1 [compound 304, N-(5-((6-((R)-3-(2,5-difluorophenyl)isoxazolidine-2-yl)pyrimidine-4-yl)amino)-2-(4-((R)-3-(dimethylamino)pyrolidine-1-yl)piperidine-1-yl)-4-methoxyphenyl) acrylamide]	A (GI50 < 50 nM)

From patent US12157730B2, “Heteroaryl derivative, method for producing same, and pharmaceutical composition comprising same as effective component” (VORONOI INC., priority 2019, dated 2024)
